From US8952024B2, “Herbicidal pyrimidone derivatives” (E I du Pont de Nemours and Company, priority 2009, dated 2015)

What was measured:
Format in all cases: in vivo
[1] = system: ducksalad (Heteranthera limosa); test: Test B flooded paddy test; conditions: for Plant response rating, Flood, Ducksalad: 250 g ai/ha, flooded paddy test, visual rating on 0 to 100 scale (0 no effect, 100 complete control) after 13 to 15 days; for Plant response rating, Ducksalad: Flood (flooded paddy test), 13 to 15 days
Summary of the method: (§1)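 Greenhouse-held for 13 to 15 days, treated pots were compared visually with controls and scored 0–100 (0, no effect). Treatment had been made into paddy water kept at 3 cm above the soil, with plants at the 2-leaf stage.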

[2] = system: barnyardgrass (Echinochloa crus-galli); test: Test B flooded paddy test; conditions: for Plant response rating, Flood, Barnyardgrass: 250 g ai/ha, flooded paddy test, visual rating on 0 to 100 scale (0 no effect, 100 complete control) after 13 to 15 days; for Plant response rating, Barnyardgrass: Flood (flooded paddy test), 13 to 15 days
Summary of the method: as §1

rice (Oryza sativa) = test: Test B flooded paddy test; conditions: for Plant response rating, Flood, Rice: 250 g ai/ha, flooded paddy test, visual rating on 0 to 100 scale (0 no effect, 100 complete control) after 13 to 15 days; for Plant response rating, Rice: Flood (flooded paddy test), 13 to 15 days
Summary of the method: as §1

[3] = system: umbrella sedge (Cyperus difformis); test: Test B flooded paddy test; conditions: for Plant response rating, Flood, Sedge, Umbrella: 250 g ai/ha, flooded paddy test, visual rating on 0 to 100 scale (0 no effect, 100 complete control) after 13 to 15 days; for Plant response rating, Sedge, Umbrella: Flood (flooded paddy test), 13 to 15 days
Summary of the method: as §1

corn (Zea mays) = test: Test A pre-/postemergence plant response; conditions: for Corn plant response rating: visual injury, 0 to 100 scale (0 no effect, 100 complete control), approx. ten days
Summary of the method: (§2)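 Approximately ten days after concurrent pre- and postemergence spraying in a greenhouse, plants were compared with untreated controls and rated visually for injury, 0 = no effect to 100 = complete control. Preemergence spray was directed onto loam/sand soil; postemergence targeted 1–2 leaf seedlings.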

[4] = system: velvetleaf (Abutilon theophrasti); test: Test A pre-/postemergence plant response
Summary of the method: as §2

[5] = system: pigweed (Amaranthus retroflexus); test: Test A pre-/postemergence plant response
Summary of the method: as §2

[6] = system: barnyardgrass (Echinochloa crus-galli); test: Test A pre-/postemergence plant response; conditions: for Barnyardgrass plant response rating: visual injury, 0 to 100 scale (0 no effect, 100 complete control), approx. ten days
Summary of the method: as §2

[7] = system: wheat (Triticum aestivum); test: Test A pre-/postemergence plant response
Summary of the method: as §2

[8] = system: morningglory (Ipomoea spp.); test: Test A pre-/postemergence plant response
Summary of the method: as §2

[9] = system: giant foxtail (Setaria faberii); test: Test A pre-/postemergence plant response
Summary of the method: as §2

[10] = system: large crabgrass (Digitaria sanguinalis); test: Test A pre-/postemergence plant response; conditions: for Crabgrass, Large plant response rating: visual injury, 0 to 100 scale (0 no effect, 100 complete control), approx. ten days
Summary of the method: as §2

[11] = 62 g ai/ha, scale of 0 to 100 where 0 is no effect and 100 is complete control
[12] = Postemergence, 125 g ai/ha, 0 to 100 scale where 0 is no effect and 100 is complete control
[13] = Preemergence, 125 g ai/ha, 0 to 100 scale, 0 = no effect, 100 = complete control
[14] = Preemergence, 500 g ai/ha, 0 to 100 scale, 0 = no effect, 100 = complete control
[15] = Postemergence, 500 g ai/ha, visual injury, 0 to 100 scale (0 no effect, 100 complete control), approx. ten days
[16] = 125 g ai/ha, scale 0 to 100, 0 is no effect, 100 is complete control
[17] = Flood, 31 g ai/ha, scale 0 to 100 (0 no effect, 100 complete control)
[18] = Preemergence, 125 g ai/ha, 0 to 100 scale where 0 is no effect and 100 is complete control, approximately ten days
[19] = Postemergence, 125 g ai/ha, visual injury, 0 to 100 scale (0 no effect, 100 complete control), approx. ten days

`Cc1c(F)cccc1-n1c(-c2ccccc2)ncc(C(=O)C2=C(O)C3CCC(C3)C2=O)c1=O` (stereo not drawn) [Compound 234] was tested, and the “Plant response rating, Flood, Ducksalad” value [1] was 70, the “Plant response rating, Ducksalad” value [1, 11] was 20 and the “Plant response rating, Flood, Barnyardgrass” value [2] was 0. For the same compound, the “Plant response rating, Barnyardgrass” value [2, 11] was 0, the “Plant response rating, Flood, Rice” value (rice (Oryza sativa)) was 0 and the “Plant response rating, Rice” value (rice (Oryza sativa); [11]) was 0. For the same compound, the “Plant response rating, Flood, Sedge, Umbrella” value [3] was 40, the “Plant response rating, Sedge, Umbrella” value [3, 11] was 0 and the “Plant response rating, Corn” value (corn (Zea mays); [12]) was 20. For the same compound, the “Corn plant response rating” value (corn (Zea mays); Postemergence, 500 g ai/ha) was 50, the “Plant response rating, Corn” value (corn (Zea mays); [13]) was 0 and the “Plant response rating, Corn” value (corn (Zea mays); [14]) was 20. The “Plant response rating, Velvetleaf” value [4, 12] was 100, the “Velvetleaf plant response rating” value [4, 15] was 100 and the “Plant response rating, Velvetleaf” value [4, 13] was 30. For the same compound, the “Plant response rating, Velvetleaf” value [4, 14] was 90, the “Plant response rating, Pigweed” value [5, 12] was 70 and the “Pigweed plant response rating” value [5, 15] was 90. The “Plant response rating, Pigweed” value [5, 13] was 50, the “Plant response rating, Pigweed” value [5, 14] was 60 and the “Plant response rating, Barnyardgrass” value [6, 12] was 80. The “Barnyardgrass plant response rating” value ([6]; Postemergence, 500 g ai/ha) was 100, the “Plant response rating, Barnyardgrass” value [6, 13] was 0 and the “Plant response rating, Barnyardgrass” value [6, 14] was 80. For the same compound, the “Plant response rating, Wheat” value [7, 12] was 0, the “Wheat plant response rating” value [7, 15] was 20 and the “Plant response rating, Wheat” value [7, 13] was 0. The “Plant response rating, Wheat” value [7, 14] was 20, the “Plant response rating, Morningglory” value [8, 12] was 100 and the “Morningglory plant response rating” value [8, 15] was 100. The “Plant response rating, Morningglory” value [8, 14] was 10, the “Plant response rating, Foxtail, Giant” value [9, 12] was 70 and the “Foxtail, Giant plant response rating” value [9, 15] was 90. The “Plant response rating, Foxtail, Giant” value [9, 13] was 10, the “Plant response rating, Foxtail, Giant” value [9, 14] was 60 and the “Plant response rating, Crabgrass, Large” value [10, 12] was 40. The “Crabgrass, Large plant response rating” value ([10]; Postemergence, 500 g ai/ha) was 90, the “Plant response rating, Crabgrass, Large” value [10, 13] was 60 and the “Plant response rating, Crabgrass, Large” value [10, 14] was 90.

`O=C(C1=C(O)C2CCC(C2)C1=O)c1cnc(-c2cc(F)cc(F)c2)n(-c2ccccc2)c1=O` (stereo not drawn) [Compound 246] was tested, and the “Plant response rating, Flood, Ducksalad” value [1] was 100, the “Plant response rating, Ducksalad” value [1, 11] was 100 and the “Plant response rating, Ducksalad” value [1, 16] was 100. The “Ducksalad plant response rating” value [1, 17] was 85, the “Plant response rating, Flood, Barnyardgrass” value [2] was 60 and the “Plant response rating, Barnyardgrass” value [2, 11] was 0. The “Plant response rating, Barnyardgrass” value [2, 16] was 20, the “Barnyardgrass plant response rating” value [2, 17] was 0 and the “Plant response rating, Flood, Rice” value (rice (Oryza sativa)) was 65. For the same compound, the “Plant response rating, Rice” value (rice (Oryza sativa); [11]) was 30, the “Plant response rating, Rice” value (rice (Oryza sativa); [16]) was 65 and the “Rice plant response rating” value (rice (Oryza sativa); [17]) was 0. The “Plant response rating, Flood, Sedge, Umbrella” value [3] was 100, the “Plant response rating, Sedge, Umbrella” value [3, 11] was 85 and the “Plant response rating, Sedge, Umbrella” value [3, 16] was 100. The “Sedge, Umbrella plant response rating” value [3, 17] was 0, the “Plant response rating, Corn” value (corn (Zea mays); [12]) was 0 and the “Corn plant response rating” value (corn (Zea mays); Postemergence, 500 g ai/ha) was 90. The “Plant response rating, Corn” value (corn (Zea mays); [18]) was 0, the “Plant response rating, Corn” value (corn (Zea mays); [14]) was 50 and the “Plant response rating, Velvetleaf” value [4, 19] was 100. For the same compound, the “Velvetleaf plant response rating” value [4, 15] was 100, the “Plant response rating, Velvetleaf” value [4, 18] was 90 and the “Plant response rating, Velvetleaf” value [4, 14] was 100. The “Plant response rating, Pigweed” value [5, 19] was 90, the “Pigweed plant response rating” value [5, 15] was 100 and the “Plant response rating, Pigweed” value [5, 18] was 100. For the same compound, the “Plant response rating, Pigweed” value [5, 14] was 100, the “Plant response rating, Barnyardgrass” value [6, 12] was 70 and the “Barnyardgrass plant response rating” value ([6]; Postemergence, 500 g ai/ha) was 100. For the same compound, the “Plant response rating, Barnyardgrass” value [6, 18] was 10, the “Plant response rating, Barnyardgrass” value [6, 14] was 100 and the “Plant response rating, Wheat” value [7, 19] was 0. The “Wheat plant response rating” value [7, 15] was 50, the “Plant response rating, Wheat” value [7, 18] was 0 and the “Plant response rating, Wheat” value [7, 14] was 50. The “Plant response rating, Morningglory” value [8, 19] was 90, the “Morningglory plant response rating” value [8, 15] was 100 and the “Plant response rating, Morningglory” value [8, 18] was 20. For the same compound, the “Plant response rating, Morningglory” value [8, 14] was 60, the “Plant response rating, Foxtail, Giant” value [9, 19] was 80 and the “Foxtail, Giant plant response rating” value [9, 15] was 100. The “Plant response rating, Foxtail, Giant” value [9, 18] was 90, the “Plant response rating, Foxtail, Giant” value [9, 14] was 90 and the “Plant response rating, Crabgrass, Large” value [10, 12] was 70. The “Crabgrass, Large plant response rating” value ([10]; Postemergence, 500 g ai/ha) was 100, the “Plant response rating, Crabgrass, Large” value [10, 18] was 100 and the “Plant response rating, Crabgrass, Large” value [10, 14] was 100.
